Reference: patent publication US20120107305A1, “Combination Therapy” (priority 2006, published 2012)

How the values were obtained:
[1] = tested on: A431 human tumour xenografts; test: A431 human vulval epidermoid carcinoma xenograft model; format: in vivo, female athymic mice (Swiss nu/nu); conditions: 20 days after randomisation; ZD6474 25 mg/kg/day p.o. once daily, bevacizumab 0.5 mg/kg i.p. twice a week; nude mice
Method: Experiments were conducted on female athymic mice (Swiss nu/nu genotype, ≧6 weeks of age). A431 human tumour xenografts were established in the experimental mice by injecting 1×10^7 cells per mouse, mixed in a ratio of 1:1 with Matrigel, subcutaneously in the dorsal flank in a volume of 100 μl. Tumour volumes were assessed at least twice weekly by bilateral Vernier calliper measurements. Mice were randomised into treatment groups when the tumour volume reached 0.2-0.4 cm^3 (day 0, this was after 7 days in Example 1 below).
Tumour growth inhibition from the start of treatment was assessed by comparison of the differences in tumour volume (median and geometric mean) between control and treated groups.
Control animals (Group I) received drug vehicles alone.

[2] = tested on: VEGF RTK; conditions: cited from earlier work
[3] = tested on: tumour models; conditions: once-daily oral administration; range of models; cited from earlier work

Compound	A431 tumor volume, Geometric mean [1] [cm^3]	Inhibition of VEGF RTK [2]	Anti-tumour activity [3]
COc1cc2c(Nc3ccc(Br)cc3F)ncnc2cc1OCC1CCN(C)CC1 [ZD6474, 4-(4-bromo-2-fluoroanilino)-6-methoxy-7-(1-methylpiperidin-4-ylmethoxy)quinazoline]	0.149	potent inhibitor	broad-spectrum anti-tumour activity
Bevacizumab: recombinant humanised monoclonal antibody to the vascular endothelial growth factor ligand VEGF-A	0.553		
